We go through 21 compounds from US8492388B2 (priority 2008, dated 2013).

The nature of the first data set: Measurement of logP values by HPLC on reversed phase columns (EEC directive 79/831 Annex V.A8).
Conditions: not given
For the compound `COC(=O)c1cccc(CCl)c1` [3-(chloromethyl)benzoate, methyl 3-(chloromethyl)benzoate], the chromatographic logP came out at 2.64.

For the compound `COCc1cccc(C(=O)O)c1` [3-(methoxymethyl)benzoic acid], the chromatographic logP was found to be 1.33.

`Cn1nnnc1C(=O)c1cccc(OC(F)(F)F)c1` [(1-methyl-1H-tetrazol-5-yl)[3-(trifluoromethoxy)phenyl]methanone] displayed a chromatographic logP of 2.96.

For `CN(C)c1cccc(C(=NOCc2cccc(NC(=O)C(F)(F)Oc3ccccc3)n2)c2nnnn2C)c1` [Example 30, N-(6-{[({[3-(dimethylamino)phenyl](1-methyl-1H-tetrazol-5-yl)methylene}amino)oxy]methyl}pyridin-2-yl)-2,2-difluoro-2-phenoxyacetamide], the chromatographic logP was 4.14.

Turning to `COCc1cccc(C(=NOCc2cccc(NC(=O)OC(C)(C)C)n2)c2nnnn2C)c1` [Example 32, tert-butyl (6-{[({[3-(methoxymethyl)phenyl](1-methyl-1H-tetrazol-5-yl)methylene}amino)oxy]methyl}pyridin-2-yl)carbamate], the chromatographic logP came out at 3.71.

`Cn1nnnc1C(=NOCc1csc(N)n1)c1cccc(OC(F)(F)F)c1` [Example 46, 4-{[({(1-methyl-1H-tetrazol-5-yl)[3-(trifluoromethoxy)phenyl]methylene}amino)oxy]methyl}-1,3-thiazol-2-amine] displayed a chromatographic logP of 2.1.

With `Cn1nnnc1C(=NOCc1csc(NC(=O)COc2ccccc2)n1)c1cccc(OC(F)(F)F)c1` [Example 53, N-(4-{[({(1-methyl-1H-tetrazol-5-yl)[3-(trifluoromethoxy)phenyl]methylene}amino)oxy]methyl}-1,3-thiazol-2-yl)-2-phenoxyacetamide], the chromatographic logP is 3.99.

As for `Cn1nnnc1C(=NO)c1cccc(OC(F)(F)F)c1` [N-hydroxy-1-(1-methyl-1H-tetrazol-5-yl)-1-[3-(trifluoromethoxy)phenyl]methanimine], the chromatographic logP was found to be 2.37.

The compound `COCc1cccc(C(=NO)c2nnnn2C)c1` [N-hydroxy-1-[3-(methoxymethyl)phenyl]-1-(1-methyl-1H-tetrazol-5-yl)methanimine] had a chromatographic logP of 1.54.

Take `COCc1cccc(C(=O)N(C)OC)c1` [N-methoxy-3-(methoxymethyl)-N-methylbenzamide]: the chromatographic logP came out at 1.43.

On to `CON(C)C(=O)c1cccc(OC(F)(F)F)c1` [N-methoxy-N-methyl-3-(trifluoromethoxy)benzamide], for which the chromatographic logP was 2.41.

For the compound `COCc1cccc(C(=O)c2nnnn2C)c1` [[3-(methoxymethyl)phenyl](1-methyl-1H-tetrazol-5-yl)methanone], the chromatographic logP is 2.01.

The data set is the same for the next values; noted with them: HPLC reversed phase, pH 2,7, 0.1% formic acid in water / acetonitrile gradient.
Consider `Cn1nnnc1C(=NOCc1cccc(N)n1)c1cccc(OC(F)(F)F)c1` [Example 5], for which the logp stood at 1.69.

Turning to `C=CCCOC(=O)Nc1cccc(CON=C(c2cccc(OC(F)(F)F)c2)c2nnnn2C)n1` [Example 8], the logp is 4.2.

Consider `C=CCCOC(=O)Nc1nc(CON=C(c2cccc(SC)c2)c2nnnn2C)cs1` [Example 21], for which the logp is on record as 3.64.

In the case of `C#CCCOC(=O)Nc1cccc(CON=C(c2cccc(N(C)C)c2)c2nnnn2C)n1` [Example 23], the logp is given as 3.21.

`C=CCCOC(=O)Nc1cccc(CON=C(c2cccc(N(C)C)c2)c2nnnn2C)n1` [Example 24] registered a logp of 3.64.

For `CON(C)C(=O)Nc1cccc(CON=C(c2cccc(N(C)C)c2)c2nnnn2C)n1` [Example 31], the logp worked out at 2.71.

Regarding `CC#CCOC(=O)Nc1cccc(CON=C(c2cccc(COC)c2)c2nnnn2C)n1` [Example 33], the logp is on record as 3.21.

The compound `CCCCCOC(=O)Nc1cccc(CON=C(c2cccc(COC)c2)c2nnnn2C)n1` [Example 38] registered a logp of 4.18.

The same data set, now with this note: pH 2.7.
Compound `CN(C)c1cccc(C(=NOCc2cccc(N)n2)c2nnnn2C)c1` [Example 22, 6-{[({[3-(dimethylamino)phenyl](1-methyl-1H-tetrazol-5-yl)methylene}amino)oxy]methyl}pyridin-2-amine] yielded a chromatographic logP of 1.19.

Take `CN(C)c1cccc(C(=NOCc2cccc(NC(=O)C(F)(F)Oc3ccccc3)n2)c2nnnn2C)c1` [Example 30, N-(6-{[({[3-(dimethylamino)phenyl](1-methyl-1H-tetrazol-5-yl)methylene}amino)oxy]methyl}pyridin-2-yl)-2,2-difluoro-2-phenoxyacetamide]: the chromatographic logP was 4.14.

The compound `COCc1cccc(C(=NOCc2cccc(NC(=O)OC(C)(C)C)n2)c2nnnn2C)c1` [Example 32, tert-butyl (6-{[({[3-(methoxymethyl)phenyl](1-methyl-1H-tetrazol-5-yl)methylene}amino)oxy]methyl}pyridin-2-yl)carbamate] displayed a chromatographic logP of 3.71.

`Cn1nnnc1C(=NOCc1csc(N)n1)c1cccc(OC(F)(F)F)c1` [Example 46, 4-{[({(1-methyl-1H-tetrazol-5-yl)[3-(trifluoromethoxy)phenyl]methylene}amino)oxy]methyl}-1,3-thiazol-2-amine] yielded a chromatographic logP of 2.1.

`Cn1nnnc1C(=NOCc1csc(NC(=O)COc2ccccc2)n1)c1cccc(OC(F)(F)F)c1` [Example 53, N-(4-{[({(1-methyl-1H-tetrazol-5-yl)[3-(trifluoromethoxy)phenyl]methylene}amino)oxy]methyl}-1,3-thiazol-2-yl)-2-phenoxyacetamide] gave a chromatographic logP of 3.99.

The term chromatographic logP denotes a lipophilicity value derived from retention on a column.
